# Measurements: patent publication EP2271935B1, “METHOD AND KIT FOR THE EX VIVO EVALUATION OF THE RESPONSE OF A TUMOR TO CONDITIONS TO BE TESTED” (Universität Leipzig, priority 2008, dated 2009)
# Read-outs that look alike come from different tables or passages of the source.
# Tested on: epithelial cell line KB (DSMZ ACC 136)
# Test: MTT assay of proliferation under varied riboflavin content and light exposure
# Format: cell-based, human
# From the text: To address this question, three media, a) the RPMI 1640 without riboflavin and phenol red that is used in the method according to the invention and was manufactured according to our specifications by Biochrom, as well as two different RPMI 1640 charges purchased from Invitrogen which were each containing 532 nmol/L riboflavin, b) a phenol red-free (Gibco 11835), and c) a conventional RPMI 1640 (Gibco 21875) with 13.284 µmol/L phenol red. All media were supplemented with 2 mmol/L L-alanyl-1-glutamine as stabilized glutamine source (Biochrom K0302 Lot 0755 S) and the same amount of 10% (v/v) of heat-inactivated fetal calf serum (FCS) that was purchased from Invitrogen (Lot 41Q7554K) with a yield of 198 nmol/L riboflavin. […] These medium concentrations define the riboflavin concentrations in controls (see below).
# In addition to the influences exerted by the different types of media alone, the riboflavin-dependent impact on the outcome of the docetaxel treatment was investigated. For this purpose 100 µl/well of docetaxel dilutions containing threefold the concentration indicated were added into the wells of microwell plates. The following seven docetaxel concentrations were tested: 19.38, 38.75, 77.5, 155, 310, 620, and 1,240 pmol/L.
# To examine photoactivation-dependent riboflavin-mediated effects disturbing the outcome of ex-vivo chemoresponse-evaluation by conventional cell culture medium, and in particular in the absence of flavin-protecting experimental conditions, varying amounts of riboflavin were added. A stock solution of 200 µM (-)-riboflavin (CAS 83-68-5, Sigma R9504, FW=376.37 g/mol, purity >99%, cell culture tested) in phosphate buffered saline was diluted to adjust in each case the highest final concentration in culture (this means: after completion of the assay by addition of the other two components to the final assay volume of 300 µL) to exactly 10 µmol/L. Serial log10-dilutions were made from this concentration in each corresponding medium. These gave final concentrations in cell culture of 10.000, 1.018, 0.12, and 0.03 µmol/L in the case of medium a) (the medium according to the method of the invention), and concentrations of 10.000, 1.449, 0.594, and 0.508 µmol/L using media b) and c).
# In general, each combination of riboflavin and docetaxel were tested in duplicate, and controls without additional riboflavin in quadruplicate for each experimental setting in the same 96-well plate. The experimental conditions were as follows: For each of the used media, two different plates were prepared simultaneously and either handled completely under flavin-protecting conditions (illumination only by sodium discharge lamps with an emission wavelength of 589 nm [i]), or in the same bench (Thermo MSC 12) with the installed light inside their working chamber switched on. The dilution of docetaxel and those of riboflavin in the particular medium were prepared for all four plates of each medium type prior to the other working steps under flavin-protecting conditions. Thus the administrations of these dilutions took about 20 min either under flavin-protecting conditions or illuminated conditions. After completed preparation of the plates that thereafter contained 200 µL of both diluted compounds, the plates were incubated 2 h in the incubator to allow for adjustment of the appropriate pH.
# In between the stock culture of KB was harvested by trypsination of a 3-days stock culture (exponential growth phase). Stock cultures of KB cells always were grown without any antibiotic or antimycotic in phenol red- and riboflavin-free RPMI 1640 supplemented with 10% (v/v) FCS and were adapted to this medium for more than five passages. They were always handled at room temperature or warmer and were never exposed to light other than the light of a sodium discharge lamp with an emission wavelength of 589 nm for at least five passages. […]
smiles,measurement,setting,value
CC(=O)O[C@@]12CO[C@@H]1C[C@H](O)[C@@]1(C)C(=O)[C@H](O)C3=C(C)[C@@H](OC(=O)[C@H](O)[C@@H](NC(=O)OC(C)(C)C)c4ccccc4)C[C@@](O)([C@@H](OC(=O)c4ccccc4)[C@H]21)C3(C)C [docetaxel],IC50,"Homo sapiens, Epithelial cell, 0.5 h, Plate No. 02; Riboflavin 20 nmol/L; medium a) RPMI 1640 without riboflavin and phenol red, daylight 30 min, read-out: IC50 for docetaxel with reference to control with same riboflavin content",238 pM
same,IC50,"Homo sapiens, Epithelial cell, 0.5 h, Plate No. 02; Riboflavin 20 nmol/L; medium a), daylight 30 min, read-out: IC50 for docetaxel normalized to medium control of medium with same riboflavin content",100 pM
same,IC50,"Homo sapiens, Epithelial cell, 0.5 h, Plate No. 02; Riboflavin 30 nmol/L; medium a) RPMI 1640 without riboflavin and phenol red, daylight 30 min, read-out: IC50 for docetaxel with reference to control with same riboflavin content",328 pM
same,IC50,"Homo sapiens, Epithelial cell, 0.5 h, Plate No. 02; Riboflavin 30 nmol/L; medium a), daylight 30 min, read-out: IC50 for docetaxel normalized to medium control of medium with same riboflavin content",138 pM
same,IC50,"Homo sapiens, Epithelial cell, 0.5 h, Plate No. 02; Riboflavin 120 nmol/L; medium a) RPMI 1640 without riboflavin and phenol red, daylight 30 min, read-out: IC50 for docetaxel with reference to control with same riboflavin content",340 pM
same,IC50,"Homo sapiens, Epithelial cell, 0.5 h, Plate No. 02; Riboflavin 120 nmol/L; medium a), daylight 30 min, read-out: IC50 for docetaxel normalized to medium control of medium with same riboflavin content",143 pM
same,IC50,"Homo sapiens, Epithelial cell, 0.5 h, Plate No. 03; Riboflavin 20 nmol/L; medium a) RPMI 1640 without riboflavin and phenol red, bench lighting <30 min, read-out: IC50 for docetaxel with reference to control with same riboflavin content",212 pM
same,IC50,"Homo sapiens, Epithelial cell, 0.5 h, Plate No. 03; Riboflavin 20 nmol/L; medium a), bench lighting <30 min, read-out: IC50 for docetaxel normalized to medium control of medium with same riboflavin content",100 pM
same,IC50,"Homo sapiens, Epithelial cell, 0.5 h, Plate No. 03; Riboflavin 30 nmol/L; medium a) RPMI 1640 without riboflavin and phenol red, bench lighting <30 min, read-out: IC50 for docetaxel with reference to control with same riboflavin content",185 pM
same,IC50,"Homo sapiens, Epithelial cell, 0.5 h, Plate No. 03; Riboflavin 30 nmol/L; medium a), bench lighting <30 min, read-out: IC50 for docetaxel normalized to medium control of medium with same riboflavin content",87.3 pM
same,IC50,"Homo sapiens, Epithelial cell, 0.5 h, Plate No. 03; Riboflavin 120 nmol/L; medium a) RPMI 1640 without riboflavin and phenol red, bench lighting <30 min, read-out: IC50 for docetaxel with reference to control with same riboflavin content",154 pM
same,IC50,"Homo sapiens, Epithelial cell, 0.5 h, Plate No. 03; Riboflavin 120 nmol/L; medium a), bench lighting <30 min, read-out: IC50 for docetaxel normalized to medium control of medium with same riboflavin content",72.5 pM
same,IC50,"Homo sapiens, Epithelial cell, 0.5 h, Plate No. 03; Riboflavin 1018 nmol/L; medium a) RPMI 1640 without riboflavin and phenol red, bench lighting <30 min, read-out: IC50 for docetaxel with reference to control with same riboflavin content",202 pM
same,IC50,"Homo sapiens, Epithelial cell, 0.5 h, Plate No. 03; Riboflavin 1018 nmol/L; medium a), bench lighting <30 min, read-out: IC50 for docetaxel normalized to medium control of medium with same riboflavin content",95 pM
same,IC50,"Homo sapiens, Epithelial cell, 0.5 h, Plate No. 04; Riboflavin 20 nmol/L; medium a) RPMI 1640 without riboflavin and phenol red, bench lighting <30 min, daylight 30 min, read-out: IC50 for docetaxel with reference to control with same riboflavin content",175 pM
same,IC50,"Homo sapiens, Epithelial cell, 0.5 h, Plate No. 04; Riboflavin 20 nmol/L; medium a), bench lighting <30 min, daylight 30 min, read-out: IC50 for docetaxel normalized to medium control of medium with same riboflavin content",100 pM
same,IC50,"Homo sapiens, Epithelial cell, 0.5 h, Plate No. 04; Riboflavin 30 nmol/L; medium a) RPMI 1640 without riboflavin and phenol red, bench lighting <30 min, daylight 30 min, read-out: IC50 for docetaxel with reference to control with same riboflavin content",139 pM
same,IC50,"Homo sapiens, Epithelial cell, 0.5 h, Plate No. 04; Riboflavin 30 nmol/L; medium a), bench lighting <30 min, daylight 30 min, read-out: IC50 for docetaxel normalized to medium control of medium with same riboflavin content",79.6 pM
same,IC50,"Homo sapiens, Epithelial cell, 0.5 h, Plate No. 04; Riboflavin 120 nmol/L; medium a) RPMI 1640 without riboflavin and phenol red, bench lighting <30 min, daylight 30 min, read-out: IC50 for docetaxel with reference to control with same riboflavin content",150 pM
same,IC50,"Homo sapiens, Epithelial cell, 0.5 h, Plate No. 04; Riboflavin 120 nmol/L; medium a), bench lighting <30 min, daylight 30 min, read-out: IC50 for docetaxel normalized to medium control of medium with same riboflavin content",85.5 pM
same,IC50,"Homo sapiens, Epithelial cell, 0.5 h, Plate No. 06; Riboflavin 499 nmol/L; medium b) phenol red-free RPMI 1640, daylight 30 min, read-out: IC50 for docetaxel with reference to control with same riboflavin content",223 pM
same,IC50,"Homo sapiens, Epithelial cell, 0.5 h, Plate No. 06; Riboflavin 499 nmol/L; medium b), daylight 30 min, read-out: IC50 for docetaxel normalized to medium control of medium with same riboflavin content",100 pM
same,IC50,"Homo sapiens, Epithelial cell, 0.5 h, Plate No. 06; Riboflavin 508 nmol/L; medium b) phenol red-free RPMI 1640, daylight 30 min, read-out: IC50 for docetaxel with reference to control with same riboflavin content",485 pM
same,IC50,"Homo sapiens, Epithelial cell, 0.5 h, Plate No. 06; Riboflavin 508 nmol/L; medium b), daylight 30 min, read-out: IC50 for docetaxel normalized to medium control of medium with same riboflavin content",218 pM
same,IC50,"Homo sapiens, Epithelial cell, 0.5 h, Plate No. 06; Riboflavin 594 nmol/L; medium b) phenol red-free RPMI 1640, daylight 30 min, read-out: IC50 for docetaxel with reference to control with same riboflavin content",187 pM
